According to US11377441B2, “Covalent inhibitors of KRAS” (Araxes Pharma LLC, priority 2017, dated 2022):

biological target: T1, KRAS G12C 1-169, his-tagged protein, GDP-loaded (Homo sapiens, UniProt P01116, G12C); assay: Biochemical assay: covalent modification of KRAS G12C measured by mass spectrometry (RapidFire/TOF or Q-Exactive); format: binding; details: covalent binding to (modification of) KRAS G12C after a ten minute incubation period
T1 construct: KRAS G12C 1-169, his-tagged protein, GDP-loaded
Outline: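 GDP-loaded KRAS G12C 1-169 (his-tagged) at 2 μM or 0.5 μM in 20 mM Hepes, 150 mM NaCl, 1 mM MgCl2, incubated with compound at 100, 30 or 10 μM at room temperature for 10 min, 30 min, 2 h or 24 h, then quenched with formic acid. Intact-protein LC-MS, deconvolved; percent modification from modified versus unmodified protein.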

Row | Structure (SMILES) | Binding %
1 | C=CC(=O)N1C[C@H](C)N(c2nc(N3CC(N(C)C)C3)nc3c(F)c(-c4c(C)ccc5cnn(C)c45)c(Cl)cc23)C[C@H]1C [Compound 120, 1-((2R,5S)-4-(6-chloro-7-(1,6-dimethyl-1H-indazol-7-yl)-2-(3-(dimethylamino)azetidin-1-yl)-8-fluoroquinazolin-4-yl)-2,5-dimethylpiperazin-1-yl)prop-2-en-1-one] | ++ (++ indicates binding activity from 50 to 80%)
2 | C=CC(=O)N1C[C@H](C)N(c2nc(OCCN3CC(F)(F)C3)nc3c(F)c(-c4c(C)ccc5cnn(CC)c45)c(Cl)cc23)C[C@H]1C [Compound 123, 1-((2R,5S)-4-(6-chloro-2-(2-(3,3-difluoroazetidin-1-yl)ethoxy)-7-(1-ethyl-6-methyl-1H-indazol-7-yl)-8-fluoroquinazolin-4-yl)-2,5-dimethylpiperazin-1-yl)prop-2-en-1-one] | +++ (+++ indicates binding activity greater than 80%)
3 | C=CC(=O)N1C[C@H](C)N(c2nc(N3CC(N(C)C)C3)nc3c(F)c(-c4c(C)ccc5sncc45)c(Cl)cc23)C[C@H]1C [Compound 124, 1-((2R,5S)-4-(6-chloro-2-(3-(dimethylamino)azetidin-1-yl)-8-fluoro-7-(5-methylbenzo[d]isothia-zol-4-yl)quinazolin-4-yl)-2,5-dimethylpiperazin-1-yl)prop-2-en-1-one] | ++ (++ indicates binding activity from 50 to 80%)
4 | C=CC(=O)N1C[C@H](C)N(c2nc(N3CC(N(C)C)C3)nc3c(F)c(-c4c(C)ccc5ocnc45)c(Cl)cc23)C[C@H]1C [Compound 125, 1-((2R,5S)-4-(6-chloro-2-(3-(dimethylamino)azetidin-1-yl)-8-fluoro-7-(5-methylbenzo[d]oxazol-4-yl)quinazolin-4-yl)-2,5-dimethylpiperazin-1-yl)prop-2-en-1-one] | ++ (++ indicates binding activity from 50 to 80%)
5 | C=CC(=O)N1C[C@H](C)N(c2nc(N3CC(N)C3)nc3c(F)c(-c4c(C)ccc5[nH]nc(C6CC6)c45)c(Cl)cc23)C[C@H]1C [Compound 126, 1-((2R,5S)-4-(2-(3-aminoazetidin-1-yl)-6-chloro-7-(3-cyclopropyl-5-methyl-1H-indazol-4-yl)-8-fluoroquinazolin-4-yl)-2,5-dimethylpiperazin-1-yl)prop-2-en-1-one] | +++ (+++ indicates binding activity greater than 80%)
6 | C=CC(=O)N1C[C@H](C)N(c2nc(N3CC(N(C)C)C3)nc3c(F)c(-c4c(C)ccc5cnn(C(C)C)c45)c(Cl)cc23)C[C@H]1C [Compound 127, 1-((2R,5S)-4-(6-chloro-2-(3-(dimethylamino)azetidin-1-yl)-8-fluoro-7-(1-isopropyl-6-methyl-1H-indazol-7-yl)quinazolin-4-yl)-2,5-dimethylpiperazin-1-yl)prop-2-en-1-one] | ++ (++ indicates binding activity from 50 to 80%)
7 | C=CC(=O)N1C[C@H](C)N(c2nc(N3CC(N(C)C)C3)nc3c(F)c(-c4c(C)ccc5cnn(C6CC6)c45)c(Cl)cc23)C[C@H]1C [Compound 128, 1-((2R,5S)-4-(6-chloro-7-(1-cyclopropyl-6-methyl-1H-indazol-7-yl)-2-(3-(dimethylamino)azetidin-1-yl)-8-fluoroquinazolin-4-yl)-2,5-dimethylpiperazin-1-yl)prop-2-en-1-one] | +++ (+++ indicates binding activity greater than 80%)
8 | C=CC(=O)N1C[C@H](C)N(c2nc(N3CC(NC)C3)nc3c(F)c(-c4c(C)ccc5[nH]nc(C6CC6)c45)c(Cl)cc23)C[C@H]1C [Compound 129, 1-((2R,5S)-4-(6-chloro-7-(3-cyclopropyl-5-methyl-1H-indazol-4-yl)-8-fluoro-2-(3-(methylamino)azetidin-1-yl)quinazolin-4-yl)-2,5-dimethylpiperazin-1-yl)prop-2-en-1-one] | +++ (+++ indicates binding activity greater than 80%)
